Results as given in patent US10168342B2, “Lipid probes and uses thereof” (THE SCRIPPS RESEARCH INSTITUTE, priority 2015, dated 2019).
Like-named read-outs stand apart in the source and are kept apart here.

Experiments:
[1] = molecular target: AEA-DA lipid probe targets in Neuro2a cells (Mus musculus, UniProt P53994)
[2] = molecular target: AEA-DA lipid probe targets in Neuro2a cells (Mus musculus, UniProt Q64310)
[3] = molecular target: AEA-DA lipid probe targets in Neuro2a cells (Mus musculus, UniProt Q8BUV8)
AEA-DA lipid probe targets in Neuro2a cells (Mus musculus, UniProt Q8BUV8), sequence (Q8BUV8 34-551): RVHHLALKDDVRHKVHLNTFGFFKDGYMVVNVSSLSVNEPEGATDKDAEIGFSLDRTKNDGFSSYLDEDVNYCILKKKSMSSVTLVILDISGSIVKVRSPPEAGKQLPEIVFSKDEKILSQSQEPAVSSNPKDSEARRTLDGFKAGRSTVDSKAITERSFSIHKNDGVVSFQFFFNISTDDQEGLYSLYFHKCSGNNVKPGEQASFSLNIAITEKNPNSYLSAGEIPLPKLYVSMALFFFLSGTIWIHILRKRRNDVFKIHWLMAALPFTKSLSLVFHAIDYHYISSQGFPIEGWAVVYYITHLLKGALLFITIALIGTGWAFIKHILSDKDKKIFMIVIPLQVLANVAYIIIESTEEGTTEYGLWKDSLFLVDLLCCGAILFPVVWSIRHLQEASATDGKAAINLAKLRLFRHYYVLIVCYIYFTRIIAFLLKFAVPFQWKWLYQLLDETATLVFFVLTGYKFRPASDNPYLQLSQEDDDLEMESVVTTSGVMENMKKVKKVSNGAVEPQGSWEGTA

[4] = molecular target: T1, AEA-DA lipid probe targets in Neuro2a cells (Mus musculus, UniProt Q8VBZ3)
T1 sequence (Q8VBZ3 1-664): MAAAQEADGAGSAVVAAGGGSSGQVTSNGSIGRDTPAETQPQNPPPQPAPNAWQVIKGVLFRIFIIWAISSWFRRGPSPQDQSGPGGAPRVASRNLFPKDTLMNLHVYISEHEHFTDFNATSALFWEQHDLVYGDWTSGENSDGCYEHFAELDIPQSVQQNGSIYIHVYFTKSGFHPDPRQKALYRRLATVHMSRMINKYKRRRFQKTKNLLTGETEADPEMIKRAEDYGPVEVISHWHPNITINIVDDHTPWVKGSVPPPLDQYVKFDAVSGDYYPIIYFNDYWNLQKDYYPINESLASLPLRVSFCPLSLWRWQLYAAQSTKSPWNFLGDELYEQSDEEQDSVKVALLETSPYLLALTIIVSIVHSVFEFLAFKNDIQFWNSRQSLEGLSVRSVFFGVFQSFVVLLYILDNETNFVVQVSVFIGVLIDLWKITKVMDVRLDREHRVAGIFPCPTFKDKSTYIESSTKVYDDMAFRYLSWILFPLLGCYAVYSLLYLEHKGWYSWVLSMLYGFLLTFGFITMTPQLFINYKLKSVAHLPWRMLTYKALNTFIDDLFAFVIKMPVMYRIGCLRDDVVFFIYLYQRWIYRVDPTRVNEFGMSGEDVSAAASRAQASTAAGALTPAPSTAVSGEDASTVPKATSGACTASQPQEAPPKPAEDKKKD

[5] = molecular target: AEA-DA lipid probe targets in Neuro2a cells (Mus musculus, UniProt Q91XC9)
AEA-DA lipid probe targets in Neuro2a cells (Mus musculus, UniProt Q91XC9), sequence (Q91XC9 whole entry): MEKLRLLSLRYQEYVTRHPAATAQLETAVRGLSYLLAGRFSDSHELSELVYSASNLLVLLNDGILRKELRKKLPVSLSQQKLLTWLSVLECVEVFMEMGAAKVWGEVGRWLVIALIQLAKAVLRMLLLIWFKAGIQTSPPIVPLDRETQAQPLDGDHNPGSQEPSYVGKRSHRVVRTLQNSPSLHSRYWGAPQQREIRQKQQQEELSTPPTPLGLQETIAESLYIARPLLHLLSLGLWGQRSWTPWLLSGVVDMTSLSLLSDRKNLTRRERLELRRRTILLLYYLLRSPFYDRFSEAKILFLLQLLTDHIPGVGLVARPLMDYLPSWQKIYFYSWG

[6] = molecular target: T2, AEA-DA lipid probe targets in Neuro2a cells (Mus musculus, UniProt Q924D0); conditions: protein Rtn4ip1, Neuro2a cells
T2 sequence (Q924D0 41-396): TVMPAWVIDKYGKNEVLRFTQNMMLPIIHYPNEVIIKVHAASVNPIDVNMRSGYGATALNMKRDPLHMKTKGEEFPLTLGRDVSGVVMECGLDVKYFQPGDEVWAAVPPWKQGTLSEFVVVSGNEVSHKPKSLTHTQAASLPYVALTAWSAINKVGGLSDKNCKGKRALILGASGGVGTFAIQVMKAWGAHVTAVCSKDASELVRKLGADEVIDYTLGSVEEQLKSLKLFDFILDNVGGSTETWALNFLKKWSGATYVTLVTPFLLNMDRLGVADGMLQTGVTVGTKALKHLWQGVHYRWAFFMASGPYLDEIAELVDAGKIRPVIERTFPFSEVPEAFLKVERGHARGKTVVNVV

[7] = molecular target: T3, AEA-DA lipid probe targets in Neuro2a cells (Mus musculus, UniProt Q99P72)
T3 sequence (Q99P72 1-1162): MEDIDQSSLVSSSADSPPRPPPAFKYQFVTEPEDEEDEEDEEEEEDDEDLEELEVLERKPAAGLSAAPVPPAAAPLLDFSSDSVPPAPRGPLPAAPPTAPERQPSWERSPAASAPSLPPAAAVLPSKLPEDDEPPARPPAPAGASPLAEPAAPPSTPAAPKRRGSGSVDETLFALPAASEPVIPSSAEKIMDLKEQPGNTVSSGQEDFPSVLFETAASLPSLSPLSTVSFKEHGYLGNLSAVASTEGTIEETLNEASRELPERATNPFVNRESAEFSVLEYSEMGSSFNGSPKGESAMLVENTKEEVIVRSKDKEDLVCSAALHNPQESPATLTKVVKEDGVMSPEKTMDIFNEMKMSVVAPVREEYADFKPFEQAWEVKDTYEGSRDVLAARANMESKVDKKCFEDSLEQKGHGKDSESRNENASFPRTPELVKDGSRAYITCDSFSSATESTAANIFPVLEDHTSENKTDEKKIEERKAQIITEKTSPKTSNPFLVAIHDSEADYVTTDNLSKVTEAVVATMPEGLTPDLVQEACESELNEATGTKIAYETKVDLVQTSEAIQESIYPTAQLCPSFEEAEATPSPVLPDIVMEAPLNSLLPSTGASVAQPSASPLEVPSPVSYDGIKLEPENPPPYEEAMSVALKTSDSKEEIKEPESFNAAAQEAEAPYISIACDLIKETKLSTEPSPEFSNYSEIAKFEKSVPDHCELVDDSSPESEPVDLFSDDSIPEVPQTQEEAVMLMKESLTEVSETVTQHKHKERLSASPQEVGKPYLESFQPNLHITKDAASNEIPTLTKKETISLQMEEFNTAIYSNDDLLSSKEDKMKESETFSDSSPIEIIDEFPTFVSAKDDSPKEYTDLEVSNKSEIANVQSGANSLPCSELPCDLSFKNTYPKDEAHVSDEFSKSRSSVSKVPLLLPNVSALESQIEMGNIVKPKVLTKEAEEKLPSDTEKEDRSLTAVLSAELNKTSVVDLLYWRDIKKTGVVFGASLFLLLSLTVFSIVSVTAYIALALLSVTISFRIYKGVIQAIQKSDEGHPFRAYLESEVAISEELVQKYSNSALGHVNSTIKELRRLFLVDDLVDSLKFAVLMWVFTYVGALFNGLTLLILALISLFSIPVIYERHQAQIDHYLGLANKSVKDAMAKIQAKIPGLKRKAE

[8] = molecular target: T4, AEA-DA lipid probe targets in Neuro2a cells (Mus musculus, UniProt Q9R0P6); conditions: for SILAC ratio, SEC11A (P67812): Neuro2a cells, AEA-DA probe
T4 sequence (Q9R0P6 1-179): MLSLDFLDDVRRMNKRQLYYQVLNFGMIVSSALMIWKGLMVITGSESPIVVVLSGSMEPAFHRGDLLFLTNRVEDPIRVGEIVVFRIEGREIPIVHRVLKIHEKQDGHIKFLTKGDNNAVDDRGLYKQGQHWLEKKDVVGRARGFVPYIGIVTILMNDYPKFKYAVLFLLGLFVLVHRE

AEA-DA lipid probe targets in Neuro2a cells (Mus musculus, UniProt Q64310), sequence (Q64310 whole entry): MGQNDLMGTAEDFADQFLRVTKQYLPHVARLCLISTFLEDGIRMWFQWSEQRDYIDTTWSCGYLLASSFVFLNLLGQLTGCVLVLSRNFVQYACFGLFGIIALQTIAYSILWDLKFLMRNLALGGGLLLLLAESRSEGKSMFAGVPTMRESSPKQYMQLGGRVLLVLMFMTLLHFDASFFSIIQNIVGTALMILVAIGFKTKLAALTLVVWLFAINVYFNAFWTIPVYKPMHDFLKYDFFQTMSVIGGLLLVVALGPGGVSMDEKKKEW
AEA-DA lipid probe targets in Neuro2a cells (Mus musculus, UniProt P53994), sequence (P53994 whole entry): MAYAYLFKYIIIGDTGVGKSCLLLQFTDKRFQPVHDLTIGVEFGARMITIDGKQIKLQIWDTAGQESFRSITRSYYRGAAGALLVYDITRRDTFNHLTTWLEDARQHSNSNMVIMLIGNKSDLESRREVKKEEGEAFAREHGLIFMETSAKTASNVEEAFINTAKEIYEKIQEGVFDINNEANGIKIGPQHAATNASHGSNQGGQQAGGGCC

## CCCCC/C=C\C/C=C\C/C=C\C/C=C\CCCC(=O)NCCO [AEA, anandamide, reference compound]
[1]; competitor 200 μM
  SILAC ratio Rab2a: 1.3
[2]; competitor 200 μM
  SILAC ratio Surf4: 1.4
[3]; competitor 200 μM
  SILAC ratio, Gpr107: 1.6
[4]; competitor 200 μM
  SILAC ratio, Clptm1: 2.3
[5]; competitor 200 μM
  SILAC ratio, Pex16: 1.7
[6]; competitor 200 μM
  SILAC ratio (AEA-DA competition): 1.0
[7]; competitor 200 μM
  SILAC ratio, Rtn4: 1.8
[8]; competitor 200 μM
  SILAC ratio, SEC11A (P67812): 1.9
  SILAC ratio, Sec11a: 1.9

## O=C(/C=C/c1cccnc1)NCCCCC1CCN(C(=O)c2ccccc2)CC1 [FK-866, reference compound]
[1]; competitor 25 μM
  SILAC ratio Rab2a: 1.2
[2]; competitor 25 μM
  SILAC ratio Surf4: 1.2
[3]; competitor 25 μM
  SILAC ratio, Gpr107: 1.0
[4]; competitor 25 μM
  SILAC ratio, Clptm1: 1.1
[5]; competitor 25 μM
  SILAC ratio, Pex16: 1.1
[7]; competitor 25 μM
  SILAC ratio, Rtn4: 1.1
[8]; competitor 25 μM
  SILAC ratio, SEC11A (P67812): 1.1
  SILAC ratio, Sec11a: 1.1

## CN1CCN(C(=O)c2c(-c3ccccc3)c3cc([N+](=O)[O-])ccc3n2C)CC1 [KML110, (1-Methyl-5-nitro-3-phenyl-1H-indol-2-yl)(4-methylpiperazin-1-yl)methanone]
[1]; competitor 25 μM
  SILAC ratio Rab2a: 1.3
[2]; competitor 25 μM
  SILAC ratio Surf4: 1.4
[3]; competitor 25 μM
  SILAC ratio, Gpr107: 1.5
[4]; competitor 25 μM
  SILAC ratio, Clptm1: 1.5
[5]; competitor 25 μM
  SILAC ratio, Pex16: 1.4
[7]; competitor 25 μM
  SILAC ratio, Rtn4: 1.4
[8]; competitor 25 μM
  SILAC ratio, Sec11a: 1.6

## CN1CCN(C(=O)c2[nH]c3ccc([N+](=O)[O-])cc3c2-c2ccccc2)CC1 [MJN228, (4-Methylpiperazin-1-yl)(5-nitro-3-phenyl-1H-indol-2-yl)methanone]
[1]; competitor 10 μM
  SILAC ratio Rab2a: 1.4
[1]; competitor 25 μM
  SILAC ratio Rab2a: 1.5
[1]; competitor 50 μM
  SILAC ratio Rab2a: 1.6
[1]; competitor 100 μM
  SILAC ratio Rab2a: 1.6
[2]; competitor 10 μM
  SILAC ratio Surf4: 1.3
[2]; competitor 25 μM
  SILAC ratio Surf4: 1.4
[2]; competitor 50 μM
  SILAC ratio Surf4: 1.7
[2]; competitor 100 μM
  SILAC ratio Surf4: 2.0
[3]; competitor 10 μM
  SILAC ratio, Gpr107: 1.1
[3]; competitor 25 μM
  SILAC ratio, Gpr107: 1.3
[3]; competitor 50 μM
  SILAC ratio, Gpr107: 2.1
[3]; competitor 100 μM
  SILAC ratio, Gpr107: 2.9
[4]; competitor 10 μM
  SILAC ratio, Clptm1: 1.3
[4]; competitor 25 μM
  SILAC ratio, Clptm1: 1.6
[4]; competitor 50 μM
  SILAC ratio, Clptm1: 1.6
[4]; competitor 100 μM
  SILAC ratio, Clptm1: 2.5
[5]; competitor 10 μM
  SILAC ratio, Pex16: 0.9
[5]; competitor 25 μM
  SILAC ratio, Pex16: 1.5
[5]; competitor 50 μM
  SILAC ratio, Pex16: 2.3
[5]; competitor 100 μM
  SILAC ratio, Pex16: 2.2
[6]; competitor 10 μM
  SILAC ratio (AEA-DA competition): 1.0
[6]; competitor 25 μM
  SILAC ratio (AEA-DA competition): 1.4
[7]; competitor 10 μM
  SILAC ratio, Rtn4: 1.0
[7]; competitor 25 μM
  SILAC ratio, Rtn4: 1.3
[7]; competitor 50 μM
  SILAC ratio, Rtn4: 1.2
[7]; competitor 100 μM
  SILAC ratio, Rtn4: 1.4
[8]; competitor 25 μM
  SILAC ratio, SEC11A (P67812): 1.6
  SILAC ratio, Sec11a: 1.6
[8]; competitor 10 μM
  SILAC ratio, Sec11a: 1.2
[8]; competitor 50 μM
  SILAC ratio, Sec11a: 1.7
[8]; competitor 100 μM
  SILAC ratio, Sec11a: 2.3

## C=CCN(C)CCCCCCOc1ccc(C(=O)c2ccc(Br)cc2)c(F)c1 [Ro 48-8071, reference compound]
[1]; competitor 25 μM
  SILAC ratio Rab2a: 1.1
[2]; competitor 25 μM
  SILAC ratio Surf4: 1.1
[3]; competitor 25 μM
  SILAC ratio, Gpr107: 1.8
[4]; competitor 25 μM
  SILAC ratio, Clptm1: 1.2
[5]; competitor 25 μM
  SILAC ratio, Pex16: 1.3
[6]; competitor 25 μM
  SILAC ratio (AEA-DA competition): 0.7
[7]; competitor 25 μM
  SILAC ratio, Rtn4: 1.0
[8]; competitor 25 μM
  SILAC ratio, SEC11A (P67812): 1.6
  SILAC ratio, Sec11a: 1.6
